In series [1] the test system is primary human osteoblasts. The series can be described thus: Cytotoxicity assay: LDH activity in culture medium. The format is cell-based. As to conditions: for LDH activity compared to alginate-coated scaffolds without SIM: 14-day period. The method, then:
Cells from passages 7-9 were seeded on scaffolds at a density of 400.000 cells/ml. […] Scaffolds soaked with culture medium were placed in 48-well culture plates. […] The culture medium was replaced every other day. Collected medium was saved for use in cytotoxicity, alkaline phosphatase (ALP) activity and protein expression assays.

The test system of series [2] is MC3T3-E1 cells. The series can be described thus: Gene expression of adhesion and osteoblast markers by real-time RT-PCR, cells on alginate hydrogels. In kind it is cell-based, mouse. As to conditions: 50 μg/ml in 2% alginate gel. The protocol:
(§1) The mouse osteoblastic cell line MC3T3-E1 (DSMZ, Braunschweig, Germany) was maintained as previously described (Tiainen H et al., 2011). Before seeding, 24-well culture plates containing crosslinked alginate hydrogels were washed with 750 μl of culture media to remove the excess of CaCl2. After evaluation of the efficiency of cell adhesion on 2% alginate gel using different cell densities, for the final experiments, cells were seeded at a density of 100 000 cells/well. Media was refreshed twice a week. Culture media was collected 24 h after seeding to study cell viability. Cells were harvested at days 14 and 21 to analyze gene expression of adhesion and osteogenic-related markers using real-time RT-PCR. Cultures were routinely observed using light microscopy (Leica DMIRB, Leica Microsystems Wetzlar GmbH, Germany).
Total RNA was isolated using Tripure® (Roche Diagnostics, Mannheim, Germany), according to the manufacturer's protocol. Total RNA was quantified at 260 nm using a Nanodrop spectrophotometer (NanoDrop Technologies, Wilmington, Del., USA).
The same amount of RNA (350 ng) was reverse transcribed to cDNA using high capacity RNA-to-cDNA kit (Applied Biosystems, Foster City, Calif.), according to the protocol of the supplier. Aliquots of each cDNA were frozen (−20° C.) until the PCR reactions were carried out.
Real-time PCR was performed in the Lightcycler 480® (Roche Diagnostics, Mannheim, Germany) using SYBR green detection. Real-time PCR was done for two reference genes (18SrRNA and glyceraldehyde-3-phosphate dehydrogenase (GAPDH)) and ten target genes (integrin alpha 8 (Itga8), integrin beta1 (Itgb1), integrin beta 3 (Itgb3), fibronectin 1 (Fn1), bone morphogenetic protein 2 (Bmp2), collagen type I (Coll-I), bone sialoprotein (Bsp), alkaline phosphatase (Alp), osteocalcin (Oc) and osteopontin (Opn)).
The primer sequences are detailed in Table 2. Reaction conditions and relative quantification have been done as previously described (Tiainen H et al., 2011).
In general terms: Quantitative PCR measures a nucleic acid by following its amplification.

The nature of series [3]: Peptide 2 release profile from TiO2 scaffolds coated with 2% alginate gel (UV-Vis). In kind it is physicochemical. As to conditions: P2-alginate-coated scaffolds, distilled water, 37° C. The protocol:
In order to mimic cell culture conditions, the samples were agitated on an orbital shaker at 200 rpm (IKA® Schüttler MTS 2, Germany) for 6 h at 37° C. and in humidity conditions (using a distilled water container). Then, samples were maintained at 37° C. in a humidified atmosphere for up to 21 days. At prefixed time points (2d, 5d, 7d, 9d, 12d, 14d, 16d, 19d and 21d), distilled water was collected and fresh distilled water was added into each well. Sample absorbances were analyzed by UV-Vis spectrophotometer (PerkinElmer® Lambda 25 UV/Vis Systems, USA) at a wavelength of 206 nm to determine the amount of peptide released. In parallel, TiO2 scaffolds coated with one layer of 2% alginate gel were used as control to subtract absorbance values obtained from degradation products from alginate.
Relative absorbance units were correlated with the amount of peptide released using a linear standard curve for each time point and the cumulative P2 released was then calculated. The experiment was performed in triplicate.

For series [4], the system named is MC3T3-E1 cells. The series can be described thus: Cell viability: LDH activity in culture media, cells on alginate hydrogels. The format is cell-based, mouse. The following applies: 50 μg/ml in alginate gel. The protocol:
as §1
The LDH activity determined in the culture media after 24 h was taken as an indicator of membrane leakage or cell lysis. The activity of the cytosolic enzyme was estimated as previously described (Rupert M et al., 2011).

Series [5] is described as follows: Peptide release profile from 2% alginate hydrogel (fluorescence spectroscopy). In kind it is physicochemical. The protocol: To study the peptide release profile, P2 was labeled with FITC. The release of peptide contained into the 2% alginate hydrogel (50 μg/ml) was quantified by fluorescence spectroscopy. First, alginate hydrogels were washed with culture media to remove the excess of CaCl2. Then, 750 μl of cell culture media were added onto peptide loaded alginate hydrogel. The samples were incubated at 37° C. and 5% CO2 for 21 days and cell culture media was changed twice a week. At prefixed time points (24 h, 4 d, 7 d, 11 d, 14 d, 18 d and 21 d), supernatants were collected and analyzed by fluorescence spectroscopy (λ ex 490 nm and λ em 525 nm) to determine the amount of peptide released to the media. The amount of peptide released during the washing step was also measured. The experiment was performed three times, and each sample analyzed in triplicate.
Relative fluorescence units were correlated with the amount of peptide released using a linear standard curve for each time point.

Ends that are not written are not given here.

As to `CCC(C)(C)C(=O)O[C@H]1C[C@@H](C)C=C2C=C[C@H](C)[C@H](CC[C@@H]3C[C@@H](O)CC(=O)O3)[C@H]21` [SIM, simvastatin], the “LDH activity compared to alginate-coated scaffolds without SIM” value in series [1] (scaffolds with 10 nM SIM) and in series [1] (scaffolds with 10 μM SIM) was “Neither of the SIM concentrations caused a significant increase” throughout. The “LDH activity, scaffolds with 10 μM SIM compared to scaffolds with 10 nM SIM” value in series [1] (throughout the 14-day period) is recorded as “higher”.

For “PHQPMQPQPPVHPMQPLPPQPPLPP (Synthetic biomineralizing peptide) [Peptide P6]”, in the series with MC3T3-E1 cells [2] (14 days), the “ALP mRNA levels compared to control” value is given as “significantly decreased”, the “Expression of Opn compared to control” value is on record as “decreased significantly”, the “Fn1 mRNA compared to control” value is “decreased significantly” and the “Itgb1 mRNA levels compared to control” value is “significantly decreased”. Also, the “Itgb3 mRNA compared to control” value in the series with MC3T3-E1 cells [2] (14 days) is “decreased significantly”. For the same compound, in the series with MC3T3-E1 cells [2] (14 days of treatment), the “Bmp2 relative mRNA levels” value is “increased significantly”. Further, in the series on MC3T3-E1 cells [2] (21 days), the “ALP mRNA levels compared to control” value was “significantly decreased”; the “Itgb1 mRNA levels compared to EMD” value is listed as “reduced significantly”; the “Itgb3 and Fn1 mRNA compared to control” value is “no differences”; the “Oc mRNA levels compared to control” value was “increased”.

Turning to PLVPSQPLVPSQPLVPSQPQPPLPP [Peptide P2], in series [3], the “amount of peptide released after 5 days” value is 9.4 % of the cumulative amount rel and the “burst release of the peptide during the first 2 days of incubation” value was 42.8 % of the cumulative amount of P2 released after 21 days. The “cell viability compared to EMD” value with MC3T3-E1 cells [4] (after 24 h) is reported as “significantly increased”. Also, the “burst release of the peptide during the first 24 h of incubation” value in series [5] (P2 FITC-labeled, 50 μg/ml in 2% alginate hydrogel, culture media, 37° C.) was 54.67%. For the same compound, the “total peptide theoretically contained in the hydrogel not released after 21 days” value in series [5] (P2 FITC-labeled, 2% alginate hydrogel, 21 days) is 5.6%. Further, the “peptide slowly released up to 11 days” value in series [5] (P2 FITC-labeled, 2% alginate hydrogel, after the first 24 h, up to 11 days) was 25.8%. Also, in series [5] (washing of alginate hydrogels with culture media to remove excess CaCl2), the “loaded peptide released during the washing step” value is listed as 12.7%. In the series with MC3T3-E1 cells [2] (14 days), the “Expression of Opn compared to control” value was “decreased significantly”, the “Fn1 mRNA compared to control” value was “decreased significantly”, the “Itgb1 mRNA levels compared to control” value is “significantly decreased” and the “Itgb3 mRNA compared to control” value was “decreased significantly”. In the series with MC3T3-E1 cells [2] (21 days), the “ALP mRNA levels compared to control” value is given as “significantly decreased”; the “Bmp2 relative mRNA levels compared to EMD” value is recorded as “decreased”; the “Itgb3 and Fn1 mRNA compared to control” value is “no differences”.

With “PLVPSSPLVPCCPLVPCCPSPPLPP (Synthetic biomineralizing peptide) [Peptide P5]”, the “toxic effects compared to EMD and to untreated alginate gel” value with MC3T3-E1 cells [4] (24 h) is “significantly lower”. Moreover, the “Oc mRNA levels compared to control” value in the series on MC3T3-E1 cells [2] (21 days) is reported as “increased”. In the series with MC3T3-E1 cells [2] ("after days of culture" (number not given)), the “Expression of Itga8 compared to control” value is listed as “increased”. Also, the Itga8 expression result in the series on MC3T3-E1 cells [2] (after 21 days of treatment) is on record as “markedly”.

The values above are taken from patent US20150209474A1, “METHOD FOR PRODUCING AN ALGINATE COATED TITANIUM DIOXIDE SCAFFOLD” (CORTICALIS AS, priority 2012, published 2015).
